Test results reported in US20240043404A1 (AbbVie Inc., priority 2009, published 2024).

system: RS4;11 cells; assay: RS4;11 cell viability assay (CellTiter Glo); type: cell-based, human; details: Homo sapiens, RS4-11, 48 h, 50,000 cells per well, 10% human serum, 48 hours; read-out: RS4; 11 EC50 Values;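 note: acute lymphoblastic leukemia line RS4,11, EC50 derived from percentage of viable cells after treatment relative to untreated controls, cell killing taken as a measure of Bcl-2 inhibition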
Experimental: The acute lymphoblastic leukemia (ALL) cell line RS4;11 was used as the primary human cell line to assess the cellular activity of Bcl-2 selective agents in vitro and their efficacy in vivo.
Cell cytotoxicity EC50 values were assessed using CellTiter Glo (Promega) according to the manufacturer's recommendations. The EC50 values were determined as a percentage of viable cells following treatment compared to the untreated control cells.

Row | EC50 | Compound
1 | 99.6 nM | CC1(C)CCC(CN2CCN(c3ccc(C(=O)NS(=O)(=O)c4cnc(OCC5(F)CCOCC5)c(F)c4)c(Oc4cnc5[nH]ccc5c4)c3)CC2)=C(c2ccc(Cl)cc2)C1 [Example 248, 4-(4-{[2-(4-chlorophenyl)-4,4-dimethylcyclohex-1-en-1-yl]methyl}piperazin-1-yl)-N-({5-fluoro-6-[(4-fluorotetrahydro-2H-pyran-4-yl)methoxy]pyridin-3-yl}sulfonyl)-2-(1H-pyrrolo[2,3-b]pyridin-5-yloxy)benzamide]
2 | > 1000 nM | CC1(C)CCC(CN2CCN(c3ccc(C(=O)NS(=O)(=O)c4cnc(OCC(C)(CO)CO)c(Cl)c4)c(Oc4cnc5[nH]ccc5c4)c3)CC2)=C(c2ccc(Cl)cc2)C1 [Example 250, N-({5-chloro-6-[3-hydroxy-2-(hydroxymethyl)-2-methylpropoxy]pyridin-3-yl}sulfonyl)-4-(4-{[2-(4-chlorophenyl)-4,4-dimethylcyclohex-1-en-1-yl]methyl}piperazin-1-yl)-2-(1H-pyrrolo[2,3-b]pyridin-5-yloxy)benzamide]
3 | 918 nM | CC1(C)CCC(CN2CCN(c3ccc(C(=O)NS(=O)(=O)c4ccc(OCC5(F)CCOCC5)nc4)c(Oc4cnc5[nH]ccc5c4)c3)CC2)=C(c2ccc(Cl)cc2)C1 [Example 251, 4-(4-{[2-(4-chlorophenyl)-4,4-dimethylcyclohex-1-en-1-yl]methyl}piperazin-1-yl)-N-({6-[(4-fluorotetrahydro-2H-pyran-4-yl)methoxy]pyridin-3-yl}sulfonyl)-2-(1H-pyrrolo[2,3-b]pyridin-5-yloxy)benzamide]
4 | 3.47 nM | CC1(C)CCC(CN2CCN(c3ccc(C(=O)NS(=O)(=O)c4ccc(NCC5CN(C(CF)CF)CCO5)c([N+](=O)[O-])c4)c(Oc4cnc5[nH]ccc5c4)c3)CC2)=C(c2ccc(Cl)cc2)C1 (stereo not drawn) [Example 252, 4-(4-{[2-(4-chlorophenyl)-4,4-dimethylcyclohex-1-en-1-yl]methyl}piperazin-1-yl)-N-{[4-({[4-(1,3-difluoropropan-2-yl)morpholin-2-yl]methyl}amino)-3-nitrophenyl]sulfonyl}-2-(1H-pyrrolo[2,3-b]pyridin-5-yloxy)benzamide]
5 | 49.6 nM | CC1(C)CCC(CN2CCN(c3ccc(C(=O)NS(=O)(=O)c4cnc(OCC5CCN(CC#N)CC5)c(Cl)c4)c(Oc4cnc5[nH]ccc5c4)c3)CC2)=C(c2ccc(Cl)cc2)C1 [Example 253, N-[(5-chloro-6-{[1-(cyanomethyl)piperidin-4-yl]methoxy}pyridin-3-yl)sulfonyl]-4-(4-{[2-(4-chlorophenyl)-4,4-dimethylcyclohex-1-en-1-yl]methyl}piperazin-1-yl)-2-(1H-pyrrolo[2,3-b]pyridin-5-yloxy)benzamide]
6 | 19.9 nM | COCCOCCN1CC[C@@H](Nc2ccc(S(=O)(=O)NC(=O)c3ccc(N4CCN(CC5=C(c6ccc(Cl)cc6)CC(C)(C)CC5)CC4)cc3Oc3cnc4[nH]ccc4c3)cc2[N+](=O)[O-])C1 [Example 254, 4-(4-{[2-(4-chlorophenyl)-4,4-dimethylcyclohex-1-en-1-yl]methyl}piperazin-1-yl)-N-{[4-({(3R)-1-[2-(2-methoxyethoxy)ethyl]pyrrolidin-3-yl}amino)-3-nitrophenyl]sulfonyl}-2-(1H-pyrrolo[2,3-b]pyridin-5-yloxy)benzamide]

The next lines start with the compound.

Row | Compound | EC50
7 | CC1(C)CCC(CN2CCN(c3ccc(C(=O)NS(=O)(=O)c4ccc(NN5CCN(C6COC6)CC5)c([N+](=O)[O-])c4)c(Oc4cnc5[nH]ccc5c4)c3)CC2)=C(c2ccc(Cl)cc2)C1 [Example 236, 4-(4-{[2-(4-chlorophenyl)-4,4-dimethylcyclohex-1-en-1-yl]methyl}piperazin-1-yl)-N-[(3-nitro-4-{[4-(oxetan-3-yl)piperazin-1-yl]amino}phenyl)sulfonyl]-2-(1H-pyrrolo[2,3-b]pyridin-5-yloxy)benzamide] | 42.9 nM
8 | CC1(C)CCC(CN2CCN(c3ccc(C(=O)NS(=O)(=O)c4ccc(NN5CCN(C6CCOCC6)CC5)c([N+](=O)[O-])c4)c(Oc4cnc5[nH]ccc5c4)c3)CC2)=C(c2ccc(Cl)cc2)C1 [Example 237, 4-(4-{[2-(4-chlorophenyl)-4,4-dimethylcyclohex-1-en-1-yl]methyl}piperazin-1-yl)-N-[(3-nitro-4-{[4-(tetrahydro-2H-pyran-4-yl)piperazin-1-yl]amino}phenyl)sulfonyl]-2-(1H-pyrrolo[2,3-b]pyridin-5-yloxy)benzamide] | 53.2 nM
9 | CC1(C)CCC(CN2CCN(c3ccc(C(=O)NS(=O)(=O)c4ccc(N[C@@H]5CCOC5)c([N+](=O)[O-])c4)c(Oc4cnc5[nH]ccc5c4)c3)CC2)=C(c2ccc(Cl)cc2)C1 [Example 238, 4-(4-{[2-(4-chlorophenyl)-4,4-dimethylcyclohex-1-en-1-yl]methyl}piperazin-1-yl)-N-({3-nitro-4-[(3R)-tetrahydrofuran-3-ylamino]phenyl}sulfonyl)-2-(1H-pyrrolo[2,3-b]pyridin-5-yloxy)benzamide] | 103 nM
10 | CC1(C)CCC(CN2CCN(c3ccc(C(=O)NS(=O)(=O)c4ccc(NCC5CCC(F)(F)CC5)c([N+](=O)[O-])c4)c(Oc4cnc5[nH]ccc5c4)c3)CC2)=C(c2ccc(Cl)cc2)C1 [Example 239, 4-(4-{[2-(4-chlorophenyl)-4,4-dimethylcyclohex-1-en-1-yl]methyl}piperazin-1-yl)-N-[(4-{[(4,4-difluorocyclohexyl)methyl]amino}-3-nitrophenyl)sulfonyl]-2-(1H-pyrrolo[2,3-b]pyridin-5-yloxy)benzamide] | 23.7 nM
11 | CC1(C)CCC(CN2CCN(c3ccc(C(=O)NS(=O)(=O)c4ccc(NC5CCN(C(C)(C)C)CC5)c(S(=O)(=O)C(F)(F)F)c4)c(Oc4cnc5[nH]ccc5c4)c3)CC2)=C(c2ccc(Cl)cc2)C1 [Example 240, N-({4-[(1-tert-butylpiperidin-4-yl)amino]-3-[(trifluoromethyl)sulfonyl]phenyl}sulfonyl)-4-(4-{[2-(4-chlorophenyl)-4,4-dimethylcyclohex-1-en-1-yl]methyl}piperazin-1-yl)-2-(1H-pyrrolo[2,3-b]pyridin-5-yloxy)benzamide] | 17.3 nM
12 | CC1(C)CCC(CN2CCN(c3ccc(C(=O)NS(=O)(=O)c4ccc(NCC5CN(C6COC6)CCO5)c(S(=O)(=O)C(F)(F)F)c4)c(Oc4cnc5[nH]ccc5c4)c3)CC2)=C(c2ccc(Cl)cc2)C1 (stereo not drawn) [Example 241, 4-(4-{[2-(4-chlorophenyl)-4,4-dimethylcyclohex-1-en-1-yl]methyl}piperazin-1-yl)-N-({4-({[4-(oxetan-3-yl)morpholin-2-yl]methyl}amino)-3-[(trifluoromethyl)sulfonyl]phenyl}sulfonyl)-2-(1H-pyrrolo[2,3-b]pyridin-5-yloxy)benzamide] | 114 nM
13 | CC1(C)CCC(CN2CCN(c3ccc(C(=O)NS(=O)(=O)c4cnc(NCC5(F)CCOCC5)c(Cl)c4)c(Oc4cnc5[nH]ccc5c4)c3)CC2)=C(c2ccc(Cl)cc2)C1 [Example 242, N-[(5-chloro-6-{[(4-fluorotetrahydro-2H-pyran-4-yl)methyl]amino}pyridin-3-yl)sulfonyl]-4-(4-{[2-(4-chlorophenyl)-4,4-dimethylcyclohex-1-en-1-yl]methyl}piperazin-1-yl)-2-(1H-pyrrolo[2,3-b]pyridin-5-yloxy)benzamide] | 223 nM
14 | CC1(C)CCC(CN2CCN(c3ccc(C(=O)NS(=O)(=O)c4cnc(NC5CCN(C6CC6)CC5)c(Cl)c4)c(Oc4cnc5[nH]ccc5c4)c3)CC2)=C(c2ccc(Cl)cc2)C1 [Example 243, N-({5-chloro-6-[(1-cyclopropylpiperidin-4-yl)amino]pyridin-3-yl}sulfonyl)-4-(4-{[2-(4-chlorophenyl)-4,4-dimethylcyclohex-1-en-1-yl]methyl}piperazin-1-yl)-2-(1H-pyrrolo[2,3-b]pyridin-5-yloxy)benzamide] | 807 nM
15 | CC1(C)CCC(CN2CCN(c3ccc(C(=O)NS(=O)(=O)c4cnc(OC[C@@H]5CN(CC#N)CCO5)c(Cl)c4)c(Oc4cnc5[nH]ccc5c4)c3)CC2)=C(c2ccc(Cl)cc2)C1 [Example 244, N-[(5-chloro-6-{[(2S)-4-(cyanomethyl)morpholin-2-yl]methoxy}pyridin-3-yl)sulfonyl]-4-(4-{[2-(4-chlorophenyl)-4,4-dimethylcyclohex-1-en-1-yl]methyl}piperazin-1-yl)-2-(1H-pyrrolo[2,3-b]pyridin-5-yloxy)benzamide] | 794 nM
16 | CN(C)CC(=O)N1CCO[C@H](COc2ncc(S(=O)(=O)NC(=O)c3ccc(N4CCN(CC5=C(c6ccc(Cl)cc6)CC(C)(C)CC5)CC4)cc3Oc3cnc4[nH]ccc4c3)cc2Cl)C1 [Example 245, N-[(5-chloro-6-{[(2S)-4-(N,N-dimethylglycyl)morpholin-2-yl]methoxy}pyridin-3-yl)sulfonyl]-4-(4-{[2-(4-chlorophenyl)-4,4-dimethylcyclohex-1-en-1-yl]methyl}piperazin-1-yl)-2-(1H-pyrrolo[2,3-b]pyridin-5-yloxy)benzamide] | 83.6 nM
17 | CC1(C)CCC(CN2CCN(c3ccc(C(=O)NS(=O)(=O)c4cnc(OC[C@H]5CN(CC#N)CCO5)c(Cl)c4)c(Oc4cnc5[nH]ccc5c4)c3)CC2)=C(c2ccc(Cl)cc2)C1 [Example 246, N-[(5-chloro-6-{[(2R)-4-(cyanomethyl)morpholin-2-yl]methoxy}pyridin-3-yl)sulfonyl]-4-(4-{[2-(4-chlorophenyl)-4,4-dimethylcyclohex-1-en-1-yl]methyl}piperazin-1-yl)-2-(1H-pyrrolo[2,3-b]pyridin-5-yloxy)benzamide] | 402 nM
18 | CN(C)CC(=O)N1CCO[C@@H](COc2ncc(S(=O)(=O)NC(=O)c3ccc(N4CCN(CC5=C(c6ccc(Cl)cc6)CC(C)(C)CC5)CC4)cc3Oc3cnc4[nH]ccc4c3)cc2Cl)C1 [Example 247, N-[(5-chloro-6-{[(2R)-4-(N,N-dimethylglycyl)morpholin-2-yl]methoxy}pyridin-3-yl)sulfonyl]-4-(4-{[2-(4-chlorophenyl)-4,4-dimethylcyclohex-1-en-1-yl]methyl}piperazin-1-yl)-2-(1H-pyrrolo[2,3-b]pyridin-5-yloxy)benzamide] | 93 nM
